For the test, the target named is T1, NEK6 (Homo sapiens, UniProt Q9HC98).
T1 construct: purchased Thermo Fisher Scientific (Life Technologies) SelectScreen
Kind of test: SelectScreen Z'LYTE. The format is biochemical. A digest of the protocol:
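Percent values come from Thermo SelectScreen profiling of NU5455, combining activity and binding assays. CSF1R was run in Z'LYTE format at Km app ATP, and CAMK1 in Adapta format with ATP listed at 10.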

Each structure is given as a SMILES string.

T1 sequence (Q9HC98 whole entry): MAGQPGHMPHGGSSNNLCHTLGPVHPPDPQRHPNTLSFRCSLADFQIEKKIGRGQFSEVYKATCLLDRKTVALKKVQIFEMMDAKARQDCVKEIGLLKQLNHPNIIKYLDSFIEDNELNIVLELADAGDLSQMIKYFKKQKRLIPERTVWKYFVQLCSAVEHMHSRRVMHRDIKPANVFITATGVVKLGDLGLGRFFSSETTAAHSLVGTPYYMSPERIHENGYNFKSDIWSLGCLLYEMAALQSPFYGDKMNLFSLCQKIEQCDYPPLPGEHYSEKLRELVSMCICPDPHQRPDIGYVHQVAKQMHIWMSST

Usually inhibition stands for the drop in the measured response relative to a control, in per cent. With `CN(C(=O)CN1CCOCC1)c1ccc2sc3c(-c4cccc5c(=O)cc(N6CC7CCC(C6)O7)oc45)cccc3c2c1` [NU5455], the inhibition at 1 µM was -19.8%.

Values taken from article PMC6934184, “Selective DNA-PKcs inhibition extends the therapeutic index of localized radiotherapy and chemotherapy” (The Journal of Clinical Investigation, 2019).
